The values that follow come from patent US8372409B2, “Dendritic cell binding proteins and uses thereof” (University of Florida Research Foundation, Inc., priority 2003, dated 2013).

In series [1] the test system is monocyte-derived DC from chimpanzee. In words: FACS binding of biotinylated DC-peptides to chimpanzee DC. The method, then:
(§1) Peripheral blood mononuclear cells (PBMCs) were isolated from blood of healthy or HCV^+ individuals by Ficoll gradient centrifugation. HCV RNA was detected in the blood of HCV-infected patients by RT-PCR. PBMCs (10^7/well) were seeded in 6-well plates for 2 hrs at 37° C. Subsequently, non-adherent cells were removed by several washes using PBS plus 2% fetal calf serum (FCS) and frozen for autologous MLR experiments. Adherent monocytes were cultured with GM-CSF (100 ng/ml) and IL-4 (10 ng/ml) in complete RPMI for 6 days (6). CD1a^+DR^bright DC were phenotyped by FACS before use. Rhesus macaque or chimpanzees DC were prepared in a parallel fashion by using Hgm-CSF (100 ng/ml) and Hil-4 (50 ng/ml) for six days (15). Mouse DC were prepared from bone marrow of BALB/c mice as described (16). On day six, CD11c^+I-A^+ DC were harvested, phenotyped and used for DC-peptide staining.
(§2) MDC (5×10^5) were incubated with biotinylated peptides (10 μg/ml each) for 1 hr at 4° C. Subsequently, cells were washed, incubated with SA-PE (1:100) for 1 hr, fixed with 0.1% paraformaldehyde and analyzed on a FACSCalibur™ using standard CellQuest software (Becton Dickinson). T cells were analyzed as we described (19). At least 10^4 gated events/condition were acquired for all analyses.
(§3) To test peptide binding specificity, biotinylated peptides #3, #12 and #18 were incubated with CD1a^+DR^bright CD11^bright monocyte-derived human DC, and analyzed by FACS.

For series [2], the system named is monocyte-derived DC from rhesus macaque. Nature of the series: FACS binding of biotinylated DC-peptides to rhesus macaque DC. Conditions: FACS (FIG. 1E). On the procedure:
as §1, §2, §3

Series [3] has as its system CD1a+DRbright CD11bright monocyte-derived human DC. Nature of the series: FACS binding of biotinylated DC-peptides to human monocyte-derived DC. The settings on record: for binding to monocyte-derived human DC: biotinylated peptides, FACS and confocal microscopy (FIG. 1A, 1B). On the procedure: as §1, §2, §3
The cognate ligands for these peptides are unknown. Thus, we next tested whether these peptides bound distinct epitopes. DC presaturated with non-biotinylated peptide no longer bound the corresponding biotinylated peptide (FIG. 2A). […] Thus, the three DC-binding peptides bound distinct, saturable DC surface epitopes.
Biotinylated peptide #3 bound immature DC within 1 hr at 4° C. (FIG. 2D). Staining was decreased over the following 20 hrs at 37° C. (FIG. 2D) consistent with antigen uptake by Dcs (15, 22). […] Peptides bound immature (upper panel) and mature MDC (lower panel) comparably (FIG. 2E), although LPS-mediated maturation appeared to increase peptide binding slightly by inducing a new, minor population of high peptide-binding DC.

For series [4], the system named is CD11c+I-A+ DC derived from mouse bone marrow. In words: FACS binding of biotinylated DC-peptides to mouse bone marrow derived DC. Conditions: FACS (FIG. 1F). The method, then: as §1, §2, §3

“AYYKTASLAPAE (PEPTIDE peptide specific to myeloid dendritic cells) [compound 12]”: the “binding to monocyte-derived DC from chimpanzee” value (shortened to “binding … from chimpanzee”) in series [1] is reported as “specifically bound”. Further, the “binding to monocyte-derived DC from rhesus macaque” value (“binding … from rhesus macaque” for short) in series [2] is “specifically bound”. Further, the “binding to monocyte-derived human DC” value in series [3] is “bound to DC”. In addition, the “binding to CD11c+I-A+ DC derived from mouse bone marrow” value (“binding to CD11c+I-A+ DC derived” below) in series [4] is listed as “did not”.
For the sequence “EPIHPETTFTNN [control peptide, reference compound]”, the “binding of 12-mer peptide to DC” value in series [3] (selected from the same panning as negative control) is on record as “did not bind to DC”.
In the case of FYPSYHSTPQRP [peptide #3], the “binding … from chimpanzee” value in series [1] is on record as “specifically bound”. Further, in series [2], the “binding … from rhesus macaque” value was “specifically bound”. The “staining of DC over the following 20 hrs” value in series [3] (37° C., consistent with antigen uptake (FIG. 2D)) is given as “decreased”. Besides, the “DC viability during peptide incubation” value in series [3] (20 hrs at 37° C.) is recorded as “remained viable”. In addition, the “time to binding of immature DC” value in series [3] (biotinylated peptide, 4° C. (FIG. 2D)) was at most 1 h. In addition, the “binding to monocyte-derived human DC” value in series [3] was “bound to DC”. Also, in series [4], the “binding to CD11c+I-A+ DC derived” value is recorded as “bound”.
Turning to “SLSLLTMPGNAS (PEPTIDE peptide specific to myeloid dendritic cells) [compound 18]”, in series [1], the “binding … from chimpanzee” value was “specifically bound”. Further, in series [2], the “binding … from rhesus macaque” value was “specifically bound”. Also, the “binding to monocyte-derived human DC” value in series [3] is listed as “bound to DC”. Besides, the “binding to CD11c+I-A+ DC derived” value in series [4] is on record as “did not”.
